The values below come from patent US20100092465A1, “TREATMENT OF GRAFT-VERSUS-HOST DISEASE” (priority 2006, published 2010).

One assay has as its target T1, mouse IL-27 (Mus musculus, UniProt O35228+Q8K3I6).
T1 sequence (O35228+Q8K3I6 with tags, fused parts or gaps): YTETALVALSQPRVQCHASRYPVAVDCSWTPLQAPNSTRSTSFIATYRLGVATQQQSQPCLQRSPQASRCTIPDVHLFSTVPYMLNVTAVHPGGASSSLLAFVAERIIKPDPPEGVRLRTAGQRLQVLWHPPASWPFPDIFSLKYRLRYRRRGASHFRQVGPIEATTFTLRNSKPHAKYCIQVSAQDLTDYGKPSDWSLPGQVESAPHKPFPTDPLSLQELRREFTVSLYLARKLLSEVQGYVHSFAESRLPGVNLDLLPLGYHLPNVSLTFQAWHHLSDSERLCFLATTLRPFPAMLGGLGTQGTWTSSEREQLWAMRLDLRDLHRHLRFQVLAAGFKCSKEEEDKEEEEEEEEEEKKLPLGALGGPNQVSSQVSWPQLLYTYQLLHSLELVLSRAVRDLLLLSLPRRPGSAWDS
Description: IL-27 inhibition of IL-2 production neutralized by IL-27RA Fc. Type of assay: cell-based. How it is done:
For testing of the soluble receptor, single-chain mouse IL-27 (10 ng/ml) was preincubated for 30 minutes at 37 degrees C. with either IL27RAm(mFc1) (10.0 and 5.0 .micro.g/ml), IL27RA-Fc5, mouse Fc1 protein (10.0 and 5.0 .micro.g/ml), human Fc5 protein (10.0 and 5.0 .micro.g/ml), or no recombinant protein in wells of the anti-CD3 coated plates. 4×10^5 CD4^+ CD62L high cells were added to the wells. Duplicate plates were set up for all experimental conditions. The plates were then cultured at 37 degrees for up to 72 hours. Cell supernatants were collected from one set of plates at 48 hours and from the duplicate set of plates at 72 hours. The supernatants were stored frozen at −80° C.

In assay [1] the test system is serum IgG1, IgG2a, IgE and cytokines. Description: Serum immunoglobulin and cytokine levels in acute GVHD model. Type of assay: in vivo, mouse. Conditions: serum level. How it is done: Efficacy of IL-27 antagonists was assayed in a mouse model of acute graft-vs-host disease (Durie et al., J. Clin. Invest. 94:1333-1338, 1994). Parental mice (C57BL/6; n=12) were euthanized, and their spleens were collected. The pooled spleens were smashed using two glass slides to dissociate splenic cells. Lysis buffer was added to the splenocyte suspension to remove red blood cells. The cells were washed in RPMI 1640 (10% FBS) medium and resuspended in an appropriate amount of PBS to make a cell concentration of 300 million cells/ml. Protein treatments were administered by intraperitoneal injection every other day beginning on day-1 and continuing until day 15. Dexamethasone (DEX) was administered by injection daily on days 0 through 6. On day 0, 75 million donor splenic lymphocytes from B6 mice (250 .micro.l per injection) were injected intravenously into recipient mice (C57BL/6×DBA/2 F1 (BDF1); n=10 per group) mice. Mice were monitored 3 times a week for changes in body weight and any signs of moribundity. Mice that lost >20% of their initial body weight were euthanized. Otherwise, mice were sacrificed 18 days after the cell transfer. Spleens were collected, and a CTL-specific lysis assay using P815 cells was performed as a quantitative measurement of acute GVHD. Furthermore, spleens were stained for T- and B-cell markers, including MHC class I markers (H2^b and H2^d) to look at donor/recipient cell ratio (acute GVHD spleen cells are mostly donor cells). Sera were collected to measure serum level of IgG1, IgG2a, and IgE by ELISA, and cytokine and chemokine levels using a commercially available kit (Luminex Corporation, Austin, Tex.).

Where “and” joins values, the source holds several entries; their conditions need not be identical. Equal entries are not always repeated.

“human IL-27RA-Fc5: human IL27RA extracellular domain (amino acids 1 to 512 of SEQ ID NO:5) fused to Fc5, effector minus human gamma1 Fc; SEQ ID NO:3”: the IL-2 concentration with mouse IL-27 (48 hr, protein conc. 5 (µg/ml; Fc controls in molar equiv.) + IL-27 10 ng/ml) was determined as 5784.11 pg/mL. The IL-2 concentration with mouse IL-27 (48 hr, protein conc. 10 (µg/ml; Fc controls in molar equiv.) + IL-27 10 ng/ml, listed as hIL-27RA) was 5774.94 pg/mL and 5333.6 pg/mL. In addition, the IL-2 concentration in the assay with mouse IL-27 (72 hr, protein conc. 5 (µg/ml; Fc controls in molar equiv.) + IL-27 10 ng/ml) is 1869.62 pg/mL. Besides, the IL-2 concentration with mouse IL-27 (72 hr, protein conc. 10 (µg/ml; Fc controls in molar equiv.) + IL-27 10 ng/ml, listed as hIL-27RA) is 28607.63 pg/mL and 17481.17 pg/mL. The “inhibition (partial block) of the ability of mouse IL-27 to inhibit IL-2 production” value with mouse IL-27 (naïve CD4 T cells) is recorded as about 50%. For the same substance, in assay [1], the IL-2 result was “↑↑↑”, the IL-5 entry is listed as “↑↑”, the IL-6 entry is recorded as “↓↓↓” and the IgE result is “↑”. Also, in assay [1], the IgG1 entry is on record as “↑↑” and the IgG2A result is reported as “↑↑”.
